In general, Kd refers to the concentration at which binding is half-saturated. The low end stands for tighter binding, the high end for weaker binding. What is called Tm is the temperature at which the thermal transition is half complete.

Results on one compound are retold here after ChEMBL document CHEMBL1949656, “Characterization of a 1,4-disubstituted 1,2,3-triazole binding to T box antiterminator RNA” (Bioorg Med Chem, 2012).

The structures appear in SMILES notation. Activity calls are given as the source filed them. The rule behind the calls is not given here.

In assay [1] the target is Nucleic Acid. In words: Binding affinity to C11U T box antiterminator model RNA at 100 to 300 uM after 130 mins by FRET assay. The format is nucleic-acid assay.
Assay [2] has as its system Nucleic Acid. In words: Binding affinity to AM1A T box antiterminator model RNA assessed as change in melting temperature at 100 uM by UV-thermal denaturation method. The format is nucleic-acid assay.
The test system of assay [3] is Nucleic Acid. As to the kind of experiment: Stabilization of AM1A T box antiterminator model RNA assessed as reduction in flexibility at U6-C12 bulge region of RNA after 40 hrs by autoradiography based in-line probing assay. The format is nucleic-acid assay.
The subject of assay [4] is Nucleic Acid. In words: Binding affinity to AM1A T box antiterminator model RNA assessed as melting temperature at 100 uM by UV-thermal denaturation method (reference value: 51 deg C).
In assay [5] the target is Nucleic Acid. In words: Binding affinity to AM1A T box antiterminator model RNA at 100 to 300 uM after 130 mins by FRET assay. The format is nucleic-acid assay.
Assay [6] concerns Nucleic Acid. In words: Stabilization of AM1A T box antiterminator model RNA assessed as effect on flexibility of RNA after 40 hrs by autoradiography based in-line probing assay. Type of assay: nucleic-acid assay.

`CN(CCCc1ccccc1)Cc1cn(CC(O)COC(=O)NCc2ccccc2)nn1` (stereo unspecified): the dissociation constant Kd in assay [1] was 59 µM; in assay [5], 56 µM. In assay [2], the Tm(app) turned out to be 69 °C. In addition, the outcome in assay [3] and in assay [6] was Active. In assay [4], the Tm came out at 52 °C.
